Target: T1, human GPR40 (Homo sapiens, UniProt O14842)
T1 construct: expressed in transfected cells; host or cells: CHO-K1
Experiment: Induction of Ca2+ (calcium flux assay) using human GPR40 expression cell line
Format: cell-based
Conditions: read-out: EC0.5
Procedure, shortened: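 CHO-K1 cells stably transfected with human GPR40, plated 24 h, loaded 1 h at 37° C with Calcium 5 dye in HBSS/HEPES pH 7.4. Intracellular calcium change after compound addition read on FlexStation; concentration–response of relative activity used to derive EC0.5.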

T1 sequence (O14842 whole entry): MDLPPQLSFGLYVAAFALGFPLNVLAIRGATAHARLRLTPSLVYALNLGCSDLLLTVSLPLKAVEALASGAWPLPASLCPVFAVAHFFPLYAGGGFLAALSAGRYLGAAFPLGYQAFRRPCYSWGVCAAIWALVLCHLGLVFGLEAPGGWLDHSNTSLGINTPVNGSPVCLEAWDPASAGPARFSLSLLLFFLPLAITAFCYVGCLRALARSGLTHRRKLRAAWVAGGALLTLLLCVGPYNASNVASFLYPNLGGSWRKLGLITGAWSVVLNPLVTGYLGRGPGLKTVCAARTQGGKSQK

With `CC#C[C@@H](CC(=O)O)c1ccc(OCc2ccc3cnn(Cc4ccncn4)c3c2)cc1` [Example 75, (S)-3-[4-(1-pyrimidin-4-ylmethyl-1H-indazol-6-ylmethoxy)-phenyl]-hex-4-ynoic acid] as the compound, how does the EC50 read?
Its EC50 is 50 to 500 nM.

For `CC#C[C@@H](CC(=O)O)c1ccc(OCc2ccc3c(F)nn(CC)c3c2C)cc1` [Example 214, (S)-3-[4-(1-ethyl-3-fluoro-7-methyl-1H-indazol-6-ylmethoxy)-phenyl]-hex-4-ynoic acid], which EC50 is on record?
The EC50 was 2 nM.

Which EC50 does the source give for `CC#C[C@@H](CC(=O)O)c1ccc(OCc2cccc3c(F)nn(C)c23)cc1` [Example 203, (S)-3-[4-(3-fluoro-1-methyl-1H-indazol-7-ylmethoxy)-phenyl]-hex-4-ynoic acid] here?
The EC50 was 1 to 50 nM.

`Cc1ccccc1-c1cn(C)c2ccc(COc3ccc(CCC(=O)O)cc3)cc12` [Example 21, 3-[4-(1-methyl-3-o-tolyl-1H-indol-5-ylmethoxy)-phenyl]-propanoic acid] was tested. Which EC50 did it give?
Its EC50 is ≥ 500 nM.

Which EC50 does the source give for `CC#C[C@@H](CC(=O)O)c1ccc(OCc2ccc3cnn(Cc4ccc(F)cc4)c3c2)cc1` [Example 66, (S)-3-{4-[1-(4-fluoro-benzyl)-1H-indazol-6-ylmethoxy]-phenyl}-hex-4-ynoic acid] here?
Its EC50 is 10 nM.

For `CC#C[C@@H](CC(=O)O)c1ccc(OCc2ccc3cn(Cc4ccccc4)nc3c2)cc1` [Example 58, (S)-3-[4-(2-benzyl-2H-indazol-6-ylmethoxy)-phenyl]-hex-4-ynoic acid], which EC50 is on record?
The EC50 was 1 to 50 nM.

For `CC#C[C@@H](CC(=O)O)c1ccc(OCc2ccc3c(CN4CCCC(F)(F)C4)cn(CC(C)C)c3n2)cc1` [Example 232, (S)-3-{4-[3-(3,3-difluoro-piperidin-1-ylmethyl)-1-isobutyl-1H-pyrrolo[2,3-b]pyridin-6-ylmethoxy]-phenyl}-hex-4-ynoic acid], which EC50 is on record?
Its EC50 is 12 nM.

Which EC50 does the source give for `CC#C[C@@H](CC(=O)O)c1ccc(OCc2ccc3ccn(Cc4ccccc4Cl)c3c2C)cc1` [Example 38, (S)-3-{4-[1-(2-chloro-benzyl)-7-methyl-1H-indol-6-ylmethoxy]-phenyl}-hex-4-ynoic acid] here?
The EC50 was 90 nM.

For `CC#C[C@@H](CC(=O)O)c1ccc(OCc2ccc3c(cnn3CC3CCCC3)c2)cc1` [Example 163, (S)-3-[4-(1-cyclopentylmethyl-1H-indazol-5-ylmethoxy)-phenyl]-hex-4-ynoic acid], which EC50 is on record?
The EC50 was 1 to 50 nM.

With `CC#C[C@@H](CC(=O)O)c1ccc(OCc2ccc3ccn(Cc4ccc(CS(C)(=O)=O)cc4)c3c2C)cc1` [Example 45, (S)-3-{4-[1-(4-methanesulfonylmethyl-benzyl)-7-methyl-1H-indol-6-ylmethoxy]-phenyl}-hex-4-ynoic acid] as the compound, how does the EC50 read?
Its EC50 is 1 to 50 nM.

For `CC#C[C@@H](CC(=O)O)c1ccc(OCc2ccc3c(CN4CCC(F)(F)C4)cn(CC(C)C)c3n2)cc1` [Example 231, (S)-3-{4-[3-(3,3-difluoro-pyrrolidin-1-ylmethyl)-1-isobutyl-1H-pyrrolo[2,3-b]pyridin-6-ylmethoxy]-phenyl}-hex-4-ynoic acid], which EC50 is on record?
Its EC50 is 1 to 50 nM.

`Cc1c(COc2ccc([C@H](CC(=O)O)c3ccon3)cc2)ccc2ccn(Cc3ccc(F)cc3)c12` [Example 84, (S)-3-{4-[1-(4-fluoro-benzyl)-7-methyl-1H-indol-6-ylmethoxy]-phenyl}-3-isoxazol-3-yl-propanoic acid] was tested. Which EC50 did it give?
Its EC50 is 50 nM.

Which EC50 does the source give for `CC#C[C@@H](CC(=O)O)c1ccc(OCc2ccc3c(COCC)nn(CC(C)C)c3c2)cc1` [Example 191, (S)-3-[4-(3-ethoxymethyl-1-isobutyl-1H-indazol-6-ylmethoxy)-phenyl]-hex-4-ynoic acid] here?
The EC50 was 10 nM.

For `CC#C[C@@H](CC(=O)O)c1ccc(OCc2ccc3c(cnn3CCOC)c2)cc1` [Example 175, (S)-3-{4-[1-(2-methoxy-ethyl)-1H-indazol-5-ylmethoxy]-phenyl}-hex-4-ynoic acid], which EC50 is on record?
The EC50 was 50 to 500 nM.

With `CC#C[C@@H](CC(=O)O)c1ccc(OCc2ccc3cnn(Cc4ncccn4)c3c2)cc1` [Example 68, (S)-3-[4-(1-pyrimidin-2-ylmethyl-1H-indazol-6-ylmethoxy)-phenyl}-hex-4-ynoic acid] as the compound, how does the EC50 read?
The EC50 was 50 to 500 nM.

For `O=C(O)CCc1ccc(NCc2ccc3ccn(-c4ccc(F)cc4)c3c2)cc1` [Example 10, 3-(4-{[1-(4-fluoro-phenyl)-1H-indol-6-ylmethyl]-amino}-phenyl)-propanoic acid], which EC50 is on record?
Its EC50 is 700 nM.

For `CC(C)CCn1ncc2cc(COc3ccc4c(c3)OCCC4CC(=O)O)ccc21` (stereo not drawn) [Example 137, {7-[1-(3-methyl-butyl)-1H-indazol-5-ylmethoxy]-chroman-4-yl}-acetic acid], which EC50 is on record?
The EC50 was 50 to 500 nM.

`O=C(O)C[C@@H](c1ccc(OCc2cccc3c2cnn3Cc2ccccc2)cc1)c1ccon1` [Example 94, (S)-3-[4-(1-benzyl-1H-indazol-4-ylmethoxy)-phenyl]-3-isoxazol-3-yl-propanoic acid] was tested. Which EC50 did it give?
Its EC50 is 60 nM.

With `CC#C[C@@H](CC(=O)O)c1ccc(OCc2ccc3c(cnn3CC3CCCCC3)c2)cc1` [Example 138, (S)-3-[4-(1-cyclohexylmethyl-1H-indazol-5-ylmethoxy)-phenyl]-hex-4-ynoic acid] as the compound, how does the EC50 read?
The EC50 was 10 nM.

With `CC#C[C@@H](CC(=O)O)c1ccc(OCc2cccc3c2c(F)nn3CCCC)cc1` [Example 198, (S)-3-[4-(1-butyl-3-fluoro-1H-indazol-4-ylmethoxy)-phenyl]-hex-4-ynoic acid] as the compound, how does the EC50 read?
Its EC50 is 16 nM.

For `CC#C[C@@H](CC(=O)O)c1ccc(OCc2cccc3c(Br)nn(C)c23)cc1` [Example 195, (S)-3-[4-(3-bromo-1-methyl-1H-indazol-7-ylmethoxy)-phenyl]-hex-4-ynoic acid], which EC50 is on record?
The EC50 was 6 nM.

For `CC#C[C@@H](CC(=O)O)c1ccc(OCc2ccc3ccn(Cc4cscn4)c3c2C)cc1` [Example 56, (S)-3-[4-(7-methyl-1-thiazol-4-ylmethyl-1H-indol-6-ylmethoxy]-phenyl}-hex-4-ynoic acid], which EC50 is on record?
Its EC50 is 1 to 50 nM.

`CC#C[C@@H](CC(=O)O)c1ccc(OCc2ccc3cn(Cc4cnc(C)cn4)nc3c2)cc1` [Example 74, (S)-3-{4-[2-(5-methyl-pyrazin-2-ylmethyl)-2H-indazol-6-ylmethoxy]-phenyl}-hex-4-ynoic acid] was tested. Which EC50 did it give?
The EC50 was ≥ 500 nM.

With `O=C(O)CC1COc2cc(OCc3ccc4ccn(Cc5ccccc5)c4n3)ccc21` (stereo not drawn) [Example 121, [6-(1-benzyl-1H-pyrrolo[2,3-b]pyridin-6-ylmethoxy)-2,3-dihydro-benzofuran-3-yl]-acetic acid] as the compound, how does the EC50 read?
Its EC50 is 300 nM.

How did the EC50 turn out when `O=C(O)C[C@@H](c1ccc(OCc2ccc3cnn(Cc4ccccc4)c3c2)cc1)c1ccon1` [Example 85, (S)-3-[4-(1-benzyl-1H-indazol-6-ylmethoxy)-phenyl]-3-isoxazol-3-yl-propanoic acid] was run?
Its EC50 is 10 nM.

Which EC50 does the source give for `Cc1cc(F)ccc1-n1ccc2ccc(COc3ccc4c(c3)OCC4CC(=O)O)cc21` (stereo not drawn) [Example 24, {6-[1-(4-fluoro-2-methyl-phenyl)-1H-indol-6-ylmethoxy]-2,3-dihydro-benzofuran-3-yl}-acetic acid] here?
Its EC50 is 20 nM.

For `CC#C[C@@H](CC(=O)O)c1ccc(OCc2cccc3c2cnn3Cc2ccccc2)cc1` [Example 48, (S)-3-[4-(1-benzyl-1H-indazol-4-ylmethoxy)-phenyl]-hex-4-ynoic acid], which EC50 is on record?
The EC50 was 1 to 50 nM.

Which EC50 does the source give for `CC(C)Cn1ccc2ccc(COc3ccc([C@H](CC(=O)O)c4ccon4)cc3)nc21` [Example 98, (S)-3-[4-(1-isobutyl-1H-pyrrolo[2,3-b]pyridin-6-ylmethoxy)-phenyl]-3-isoxazol-3-yl-propanoic acid] here?
The EC50 was 1 to 50 nM.

For `CC#C[C@@H](CC(=O)O)c1ccc(OCc2cccc3c2cnn3CC2CC2)cc1` [Example 199, (S)-3-[4-(1-cyclopropylmethyl-1H-indazol-4-ylmethoxy)-phenyl]-hex-4-ynoic acid], which EC50 is on record?
Its EC50 is 17 nM.

Which EC50 does the source give for `CC#C[C@@H](CC(=O)O)c1ccc(OCc2ccc3c(Cn4cccn4)nn(C(C)C)c3c2)cc1` [Example 202, (S)-3-[4-(1-isopropyl-3-pyrazol-1-ylmethyl-1H-indazol-6-ylmethoxy)-phenyl]-hex-4-ynoic acid] here?
Its EC50 is 8 nM.

How did the EC50 turn out when `CC#C[C@@H](CC(=O)O)c1ccc(OCc2ccc3ccn(CC(C)C)c3n2)cc1` [Example 115, (S)-3-[4-(1-isobutyl-1H-pyrrolo[2,3-b]pyridin-6-ylmethoxy)-phenyl]-hex-4-ynoic acid] was run?
Its EC50 is 1 to 50 nM.

How did the EC50 turn out when `CC#C[C@@H](CC(=O)O)c1ccc(OCc2ccc3c(COC)nn(CC(C)C)c3c2)cc1` [Example 188, (S)-3-[4-(1-isobutyl-3-methoxymethyl-1H-indazol-6-ylmethoxy)-phenyl]-hex-4-ynoic acid] was run?
The EC50 was 5 nM.

Which EC50 does the source give for `CC#C[C@@H](CC(=O)O)c1ccc(OCc2ccc3ccn(Cc4ccccc4)c3c2Cl)cc1` [Example 40, (S)-3-[4-(1-benzyl-7-chloro-1H-indol-6-ylmethoxy)-phenyl]-hex-4-ynoic acid] here?
Its EC50 is 60 nM.

For `CC(C)Cn1cc2ccc(COc3ccc([C@H](CC(=O)O)c4ccon4)cc3)cc2n1` [Example 88, (S)-3-[4-(2-isobutyl-2H-indazol-6-ylmethoxy)-phenyl]-3-isoxazol-3-yl-propanoic acid], which EC50 is on record?
Its EC50 is 400 nM.

With `CC#C[C@@H](CC(=O)O)c1ccc(OCc2ccc3c(cnn3CC(C)C)c2)cc1` [Example 132, (S)-3-[4-(1-isobutyl-1H-indazol-5-ylmethoxy)-phenyl]-hex-4-ynoic acid] as the compound, how does the EC50 read?
Its EC50 is 1 to 50 nM.

With `CC#C[C@@H](CC(=O)O)c1ccc(OCc2cc(C)c3c(cnn3CC(C)C)c2)cc1` [Example 130, (S)-3-[4-(1-isobutyl-7-methyl-1H-indazol-5-ylmethoxy)-phenyl]-hex-4-ynoic acid] as the compound, how does the EC50 read?
The EC50 was 1 to 50 nM.

With `CC#C[C@@H](CC(=O)O)c1ccc(OCc2ccnc3c2c(F)cn3CC(C)C)cc1` [Example 225, (S)-3-[4-(3-fluoro-1-isobutyl-1H-pyrrolo[2,3-b]pyridin-4-ylmethoxy)-phenyl]-hex-4-ynoic acid] as the compound, how does the EC50 read?
The EC50 was 13 nM.

How did the EC50 turn out when `CC#C[C@@H](CC(=O)O)c1ccc(OCc2ccc3c(c2)ncn3Cc2ccccc2)cc1` [Example 125, (S)-3-[4-(1-benzyl-1H-benzoimidazol-5-ylmethoxy)-phenyl]-hex-4-ynoic acid] was run?
Its EC50 is 20 nM.

How did the EC50 turn out when `CC#C[C@@H](CC(=O)O)c1ccc(OCc2ccc3c(CN4CCCCC4)nn(CC(C)C)c3c2C)cc1` [Example 218, (S)-3-[4-(1-isobutyl-7-methyl-3-piperidin-1-ylmethyl-1H-indazol-6-ylmethoxy)-phenyl]-hex-4-ynoic acid] was run?
The EC50 was 14 nM.
